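Each compound was tested at five concentrations against cells in 96-well plates for 48 hours. The concentration for 50% growth inhibition is given as GI50.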 The source made the active and inactive calls. Cut-off read from the data, not from the text of the source: active = GI50 up to about 1.1 µM and inactive = higher.
Columns and labels:
Assay in all cases: NCI anticancer screen, dose series, 48 h
A549 = test system: A549
ACHN = test system: ACHN
CCRF-CEM = test system: CCRF-CEM
HCC 2998 = test system: HCC 2998
HOP-62 = test system: HOP-62
MCF7 = test system: MCF7
NCI-H522 = test system: NCI-H522
NCI/ADR-RES = test system: NCI/ADR-RES
OVCAR-4 = test system: OVCAR-4
OVCAR-5 = test system: OVCAR-5
OVCAR-8 = test system: OVCAR-8
SF-295 = test system: SF-295
SK-MEL-5 = test system: SK-MEL-5
SNB-75 = test system: SNB-75
SR = test system: SR
T47D = test system: T47D
TK-10 = test system: TK-10
UO-31 = test system: UO-31
HOP-92 = test system: HOP-92

Measured: GI50

C=C(C(=O)OC)[C@@H]1C[C@@H](OC(C)=O)C2=C[C@H](C[C@@]3(C)O[C@@H]3C3=CC(C)=C(O3)[C@H]1OC(C)=O)OC2=O [BIPINNATIN I]
inactive: A549 40.7 µM | ACHN 16.5 µM | HCC 2998 20.4 µM | HOP-62 22.7 µM | MCF7 8.28 µM | NCI-H522 2.59 µM | NCI/ADR-RES 32.9 µM | OVCAR-4 35.2 µM | OVCAR-5 17.9 µM | OVCAR-8 17.3 µM | SF-295 27 µM | SK-MEL-5 15.2 µM | SNB-75 26.1 µM | SR 9.38 µM | T47D 12.7 µM | TK-10 16 µM | UO-31 16 µM
active: CCRF-CEM 0.0429 µM

Cc1csc2nc3[nH]ncc3c(=O)n12
inactive: A549 > 100 µM | ACHN > 100 µM | CCRF-CEM > 100 µM | HCC 2998 > 100 µM | HOP-62 > 100 µM | MCF7 > 100 µM | NCI-H522 > 100 µM | NCI/ADR-RES 66.8 µM | OVCAR-4 > 100 µM | OVCAR-5 > 100 µM | OVCAR-8 > 100 µM | SF-295 > 100 µM | SK-MEL-5 > 100 µM | SNB-75 61 µM | SR > 100 µM | T47D > 100 µM | UO-31 81.8 µM

O=C(O)C12C3CCC(CC3)C1(C(=O)O)C1CCC2C1 (configuration not stated)
active: SR < 0.01 µM
inactive: A549 > 100 µM | ACHN > 100 µM | CCRF-CEM > 100 µM | HCC 2998 > 100 µM | HOP-62 > 100 µM | MCF7 > 100 µM | NCI-H522 86.1 µM | NCI/ADR-RES > 100 µM | OVCAR-5 > 100 µM | OVCAR-8 > 100 µM | SF-295 > 100 µM | SK-MEL-5 > 100 µM | SNB-75 > 100 µM | T47D > 100 µM | TK-10 > 100 µM | UO-31 > 100 µM

CC1CCC(C(C)C2C(O)CC3C4CC=C5CC(O)CCC5(C)C4CCC32C)NC1 (configuration not stated)
inactive: A549 83 µM | ACHN 42 µM | HCC 2998 11.9 µM | HOP-62 27.7 µM | HOP-92 23.7 µM | MCF7 39.4 µM | NCI-H522 63 µM | NCI/ADR-RES 23.4 µM | OVCAR-4 20.2 µM | OVCAR-5 89.7 µM | OVCAR-8 15.9 µM | SK-MEL-5 44.2 µM | SNB-75 28.2 µM | T47D 62.1 µM | TK-10 14.5 µM | UO-31 41.4 µM

Cc1nn(C2OC(CO)C(O)C(F)C2O)c(=O)[nH]c1=O (configuration not stated)
inactive: A549 > 100 µM | ACHN > 100 µM | CCRF-CEM > 100 µM | HCC 2998 > 100 µM | HOP-92 > 100 µM | MCF7 > 100 µM | NCI-H522 > 100 µM | NCI/ADR-RES > 100 µM | OVCAR-4 > 100 µM | OVCAR-5 > 100 µM | OVCAR-8 > 100 µM | SF-295 > 100 µM | SK-MEL-5 > 100 µM | T47D > 100 µM | TK-10 > 100 µM | UO-31 > 100 µM

CN(C)CCCNC(CC#N)CCC#N (configuration not stated)
inactive: A549 > 10 µM | ACHN > 10 µM | CCRF-CEM > 10 µM | HCC 2998 > 10 µM | HOP-62 > 10 µM | HOP-92 > 10 µM | MCF7 > 10 µM | NCI-H522 > 10 µM | NCI/ADR-RES > 10 µM | OVCAR-4 > 10 µM | OVCAR-5 > 10 µM | OVCAR-8 > 10 µM | SF-295 > 10 µM | SK-MEL-5 > 10 µM | SNB-75 > 10 µM | T47D > 10 µM | TK-10 > 10 µM | UO-31 > 10 µM

COP(C)(=O)C1=CCN(C(=O)OCC[Si](C)(C)C)CC1 (configuration not stated)
inactive: A549 > 100 µM | ACHN > 100 µM | CCRF-CEM > 100 µM | HCC 2998 > 100 µM | HOP-62 > 100 µM | HOP-92 > 100 µM | MCF7 > 100 µM | NCI-H522 > 100 µM | NCI/ADR-RES > 100 µM | OVCAR-4 > 100 µM | OVCAR-5 > 100 µM | OVCAR-8 > 100 µM | SF-295 > 100 µM | SK-MEL-5 > 100 µM | SNB-75 > 100 µM | T47D > 100 µM | TK-10 > 100 µM | UO-31 > 100 µM

O=C(n1[nH]c(=O)n(-c2ccc([N+](=O)[O-])cc2)c1=O)C(Cl)(Cl)Cl
inactive: A549 > 75 µM | ACHN > 75 µM | HCC 2998 > 75 µM | HOP-62 > 75 µM | MCF7 > 75 µM | NCI-H522 > 75 µM | NCI/ADR-RES > 75 µM | OVCAR-4 > 75 µM | OVCAR-5 > 75 µM | OVCAR-8 > 75 µM | SF-295 > 75 µM | SK-MEL-5 > 75 µM | SNB-75 > 75 µM | SR > 75 µM | T47D > 75 µM | TK-10 > 75 µM | UO-31 > 75 µM

Reference: ChEMBL document CHEMBL1201862, “PubChem BioAssay data set” (2004)
